Biological target: Free fatty acid receptor 1 (Homo sapiens, UniProt O14842)
Assay: FLIPR Assay: FLIPR (Fluorimetric Imaging Plate Reader, Molecular Devices) assays were performed to measure agonist-induced calcium mobilization of the stable clones. For the FLIPR assay, one day before assay, GPR40/CHO NFAT BLA cells were seeded into black-wall-clear-bottom 384-well plates (Costar) at 1.4×10e4 cells/20 μL medium/well. The cells were incubated with 20 μl/well of the assay buffer (HBSS, 0.1% BSA, 20 mM HEPES, 2.5 mM probenecid, pH 7.4) containing 8 μM fluo-4,AM, 0.08% pluronic acid at room temperature for 100 minutes. Fluorescence output was measured using FLIPR. Compounds were dissolved in DMSO and diluted to desired concentrations with assay buffer. 13.3 μL/well of compound solution was added.

Free fatty acid receptor 1, sequence (O14842 whole entry): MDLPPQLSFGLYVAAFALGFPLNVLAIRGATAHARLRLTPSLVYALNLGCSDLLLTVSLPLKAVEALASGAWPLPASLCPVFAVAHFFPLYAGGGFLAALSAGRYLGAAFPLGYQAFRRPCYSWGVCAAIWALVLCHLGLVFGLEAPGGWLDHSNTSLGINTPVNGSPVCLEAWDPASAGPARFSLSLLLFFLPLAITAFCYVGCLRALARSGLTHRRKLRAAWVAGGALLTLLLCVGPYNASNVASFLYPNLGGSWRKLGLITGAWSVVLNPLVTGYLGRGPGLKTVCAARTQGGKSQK

EC50: 3.3 µM
Structure (SMILES): Cc1cccc(C)c1-c1cccc(C2CCCc3cc(CCC(=O)O)ccc3O2)c1 (stereo unspecified)
